Results: patent publication EP0326963B1, “Deodorant as well as deodorizing food, drink and seasoning” (priority 1988, dated 1989)
Values joined by “and” are separate entries in the source; they are usually repeats but may differ in a detail not shown here. Equal entries are not always repeated.

What was measured:
urogenous smell [1] = assay: Test Example 1: smell of fresh urine of cats, potassium phytate solution 8mg/ml; format: in vivo; parameters: key to Deodorizing Effects 1st day / Deodorizing Effects 3rd day / Deodorizing Effects 5th day / Deodorizing Effects 7th day / Deodorizing Effects 14th day: 1: No change; 2: Weaken; 3: Almost no recognizable smell
Method: A solution containing potassium phytate in an amount of 8mg/ml (Example 1) was administered to cats (5 heads, body weight of about 5kg) in an amount of 3ml/head/day over 14 days. After 1, 3, 5, 7 and 14 days from the first administration, fresh urine was taken with use of a catheter to immediately check a degree of its smell by 3 judges. […]

urogenous smell [2] = assay: Test Example 3: smell of fresh urine of cats, potassium phytate/lactose powder in food; format: in vivo, crossbred mature cats; parameters: key to Deodorizing Effects 1st day / Deodorizing Effects 3rd day / Deodorizing Effects 5th day / Deodorizing Effects 7th day: 1: No change; 2: Weaken; 3: Almost no recognizable smell
Method: A powder composition was prepared by mixing potassium phytate and lactose, which composition containing the phytate in an amount of 24mg/g. The composition was mixed with a powdered food which was […] by crossbred mature cats (8 heads, body weight of about 5kg) in an amount of 1g/head/day based on the composition over 7 days. After 1, 3, 5 and 7 days from the first administration, fresh urine was taken with use of a catheter to immediately check a degree of its smell by 3 judges. […]

urogenous smell [3] = assay: Test Example 6: urogenous smell of hamsters, potassium phytate in drinking water; format: in vivo; conditions: hamsters (2 pairs); 10mg/kg in drinking water over 14 days; checked on finely cut newspaper used as litter
Method: An aqueous solution containing potassium phytate in an amount of 20mg/ml was prepared. The solution was added to drinking water for each experimented animal (hamsters, 2 pairs) over 14 days, so that each animal can intake the compound in an amount of 10mg/kg.

urogenous smell [4] = assay: Test Example 5: smell of fresh urine of rabbits, potassium phytate in drinking water; format: in vivo; parameters: key to Deodorizing Effects 1st day / Deodorizing Effects 3rd day / Deodorizing Effects 5th day / Deodorizing Effects 7th day / Deodorizing Effects 14th day: 1: No change; 2: Weaken; 3: Almost no recognizable smell
Method: An aqueous solution containing potassium phytate in an amount of 20mg/ml was added to 170 ml of drinking water for each experimented animal (rabbits, 2 heads) in amount of 2ml. The resulting drinking water was given for each day over 14 days, so that it can be […] by the animal in free together with their food. After 1, 3, 5, 7 and 14 days from the first giving of the drinking water containing the compound, fresh urine was taken with use of a catheter to immediately check a degree of its smell by 3 judges. […] While, there was no change in a fragrant smell which may be considered due to plant terpenes contained in their food.

urogenous smell [5] = assay: Test Example 10: urogenous smell of rats fed high protein cat food; format: in vivo; parameters: key: Judged by 4 stage judgement of ++, +, ± and −; Judged by 4 stage judgement of ++, +, ± and −; Judged by 4 stage judgement of ++, +, ± and −; Judged by 4 stage judgement of ++, +, ± and −
Method: As experimental animal, rats were employed, they had been fed with a cat food of high protein content (30%) to excrete urine with a smell inherent in that of cats. To test group I, potassium phytate was administrated in abdominal cavity at a dose of 3mg/day over 5 days and while, to test group II, the compound was given in the similar to the above but at a dose of 30mg/day. To control group, no compound was given.

urogenous smell [6] = assay: Test Example 2: smell of fresh urine of cats, potassium phytate solution 20mg/ml; format: in vivo, crossbred mature cats; parameters: key to Deodorizing Effects 1st day / Deodorizing Effects 3rd day / Deodorizing Effects 5th day / Deodorizing Effects 7th day: 1: No change; 2: Weaken; 3: Almost no recognizable smell; conditions: 20mg/ml solution
Method: A solution containing potassium phytate in an amount of 20mg/ml (Example 1) was administered to crossbred mature cats (8 heads, body weight of about 5kg) in an amount of 3ml/head/day over 7 days. After 1, 3, 5 and 7 days from the first administration, fresh urine was taken with use of a catheter to immediately check a degree of its smell by 3 judges. […]

urogenous smell [7] = assay: Test Example 4: smell of fresh urine of cats, cat food containing potassium phytate; format: in vivo, crossbred mature cats; parameters: key to Deodorizing Effects 2nd day / Deodorizing Effects 3rd day / Deodorizing Effects 4th day / Deodorizing Effects 5th day / Deodorizing Effects 7th day: 1: No change; 2: Weaken; 3: Almost no recognizable smell; conditions: cat food with 0.1mg/g
Method: To a moisture type cat food, potassium phytate was composed in an amount of 0.1mg/g. The cat food was given to crossbred mature cats (2 heads, body weight of about 5kg) in an amount 100g/day over 7 days. After 2, 3, 4, 5 and 7 days from the first administration, fresh urine was taken with use of a catheter to immediately check a degree of its smell by 3 judges. […]

ozostomy = format: in vivo, normal persons; conditions: 3 judges
Method: Following substances generating unpleasant smell were intaken by each panel (3 normal persons) who immediately drinks an aqueous solution of potassium phytinate (105mg/10ml). On contrary thereto, each control panel drinks were drinking water in same amount.
An inspection of ozostmy was carried out from time to time at intervals by 3 judges (to be judged as positive, when 2 or 3 judges feel the unpleasant smell) and by self notification of the experimented person.
Unpleasant smell generating materials : • a) Garlic (10g as grated one), • b) Leek (50g as cooked one), • c) Scallion (50g as pickled one), • d) Onion (100g as grated one), • e) Welsh onion (100g as cooked one), • f) Tobacco (carrying out a functional test by the third party on smokers who smoke more than 50 cigarette per diem), and • g) Alcohol (drink 300ml of Japanese sake, when the stomach of experimented person emties).

[8] = cats, 8mg/ml solution, 3ml/head/day
[9] = cats, powder 24mg/g, 1g/head/day in food
[10] = rabbits, potassium phytate in drinking water
[11] = test group I: 3mg/day in abdominal cavity over 5 days
[12] = test group II: 30mg/day in abdominal cavity over 5 days

Structure (SMILES): O=P(O)(O)O[C@H]1[C@H](OP(=O)(O)O)[C@@H](OP(=O)(O)O)[C@H](OP(=O)(O)O)[C@@H](OP(=O)(O)O)[C@H]1OP(=O)(O)O [potassium phytate, Potassium phytate]
- Efficiency 1st day (urogenous smell [1]; cats (5 heads), 8mg/ml solution, 3ml/head/day, 1st day): 0/5
- Efficiency 3rd day (urogenous smell [1]; cats (5 heads), 8mg/ml solution, 3ml/head/day, 3rd day): 0/5
- Efficiency 5th day (urogenous smell [1]; cats (5 heads), 8mg/ml solution, 3ml/head/day, 5th day): 4/5
- Efficiency 7th day (urogenous smell [1]; cats (5 heads), 8mg/ml solution, 3ml/head/day, 7th day): 5/5
- Efficiency 14th day (urogenous smell [1]; cats (5 heads), 8mg/ml solution, 3ml/head/day, 14th day): 5/5
- deodorizing effect of the compound appears (urogenous smell [1]; [8]): by third day
- urogenous smell was disappeared (urogenous smell [1]; [8]): on fifth day
- similar test repeated (urogenous smell [1]; cats, repeated after 10 days from the final administration): results same with said first test
- urogenous smell after the final administration (urogenous smell [1]; cats, several days after the final administration): appeared again
- Deodorizing Effects 3rd day (urogenous smell [1]; individual cat, 8mg/ml solution, 3ml/head/day over 14 days, 3rd day): 1 and 2 (4×)
- Deodorizing Effects 5th day (urogenous smell [1]; individual cat, 8mg/ml solution, 3ml/head/day over 14 days, 5th day): 2 and 3 (4×)
- Deodorizing Effects 7th day (urogenous smell [1]; individual cat, 8mg/ml solution, 3ml/head/day over 14 days, 7th day): 3
- Deodorizing Effects 14th day (urogenous smell [1]; individual cat, 8mg/ml solution, 3ml/head/day over 14 days, 14th day): 3
- Deodorizing Effects 1st day (urogenous smell [1]; individual cat, 8mg/ml solution, 3ml/head/day over 14 days, fresh urine, 3 judges, 1st day): 1
- Efficiency 1st day (urogenous smell [2]; cats (8 heads), powder 24mg/g, 1g/head/day in food, 1st day): 0/8
- Efficiency 3rd day (urogenous smell [2]; cats (8 heads), powder 24mg/g, 1g/head/day in food, 3rd day): 2/8
- Efficiency 5th day (urogenous smell [2]; cats (8 heads), powder 24mg/g, 1g/head/day in food, 5th day): 8/8
- Efficiency 7th day (urogenous smell [2]; cats (8 heads), powder 24mg/g, 1g/head/day in food, 7th day): 8/8
- deodorizing effect of the compound appears (urogenous smell [2]; [9]): by third day
- urogenous smell disappeared (urogenous smell [2]; [9]): on fifth day
- Deodorizing Effects 1st day (urogenous smell [2]; individual cat, powder with lactose 24mg/g, 1g/head/day in food over 7 days, 1st day): 1 (4×) and 2 (4×)
- Deodorizing Effects 3rd day (urogenous smell [2]; individual cat, powder with lactose 24mg/g, 1g/head/day in food, 3rd day): 3 (2×) and 2 (6×)
- Deodorizing Effects 5th day (urogenous smell [2]; individual cat, powder with lactose 24mg/g, 1g/head/day in food, 5th day): 3
- Deodorizing Effects 7th day (urogenous smell [2]; individual cat, powder with lactose 24mg/g, 1g/head/day in food, 7th day): 3
- intensity of the urogenous smell (urogenous smell [3]): decreases on several days from the first administration
- Deodorizing Effects 1st day (urogenous smell [4]; individual rabbit, 2ml of 20mg/ml solution in 170 ml drinking water per day over 14 days, 1st day): 1
- Deodorizing Effects 3rd day (urogenous smell [4]; individual rabbit, 2ml of 20mg/ml solution in 170 ml drinking water per day, 3rd day): 2 (3×) and 1
- Deodorizing Effects 5th day (urogenous smell [4]; individual rabbit, 2ml of 20mg/ml solution in 170 ml drinking water per day, 5th day): 3 (3×) and 2
- Deodorizing Effects 7th day (urogenous smell [4]; individual rabbit, 2ml of 20mg/ml solution in 170 ml drinking water per day, 7th day): 3
- Deodorizing Effects 14th day (urogenous smell [4]; individual rabbit, 2ml of 20mg/ml solution in 170 ml drinking water per day, 14th day): 3
- Efficiency 1st day (urogenous smell [4]; rabbits, 2ml of 20mg/ml solution in drinking water per day, 1st day): 0/4
- Efficiency 3rd day (urogenous smell [4]; rabbits, 2ml of 20mg/ml solution in drinking water per day, 3rd day): 0/4
- Efficiency 5th day (urogenous smell [4]; rabbits, 2ml of 20mg/ml solution in drinking water per day, 5th day): 3/4
- Efficiency 7th day (urogenous smell [4]; rabbits, 2ml of 20mg/ml solution in drinking water per day, 7th day): 4/4
- Efficiency 14th day (urogenous smell [4]; rabbits, 2ml of 20mg/ml solution in drinking water per day, 14th day): 4/4
- almost no unpleasant urogenous smell was notified (urogenous smell [4]; [10]): on fifth day
- deodorizing effect of the compound appears (urogenous smell [4]; [10]): by third day
- fragrant smell (considered due to plant terpenes contained in their food) (urogenous smell [4]; [10]): no change
- Urogenous Smell 3rd day (urogenous smell [5]; [11]): +
- Urogenous Smell 6th day (urogenous smell [5]; [11]): ±
- Urogenous Smell 9th day (urogenous smell [5]; [11]): +
- Urogenous Smell 3rd day (urogenous smell [5]; [12]): ±
- Urogenous Smell 6th day (urogenous smell [5]; [12]): ±
- Urogenous Smell 9th day (urogenous smell [5]; [12]): +
- Efficiency 1st day (urogenous smell [6]; cats (8 heads), 3ml/head/day, 1st day): 0/8
- Efficiency 3rd day (urogenous smell [6]; cats (8 heads), 3ml/head/day, 3rd day): 0/8
- Efficiency 5th day (urogenous smell [6]; cats (8 heads), 3ml/head/day, 5th day): 8/8
- Efficiency 7th day (urogenous smell [6]; cats (8 heads), 3ml/head/day, 7th day): 8/8
- deodorizing effect of the compound appears (urogenous smell [6]; cats, 3ml/head/day): by third day
- urogenous smell disappeared (urogenous smell [6]; cats, 3ml/head/day): on fifth day
- Deodorizing Effects 1st day (urogenous smell [6]; individual cat, 3ml/head/day over 7 days, 1st day): 1 (6×) and 2 (2×)
- Deodorizing Effects 3rd day (urogenous smell [6]; individual cat, 3ml/head/day over 7 days, 3rd day): 2
- Deodorizing Effects 5th day (urogenous smell [6]; individual cat, 3ml/head/day over 7 days, 5th day): 3
- Deodorizing Effects 7th day (urogenous smell [6]; individual cat, 3ml/head/day over 7 days, 7th day): 3
- Efficiency 2nd day (urogenous smell [7]; cats (2 heads), 100g/day, 2nd day): 0/2
- Efficiency 3rd day (urogenous smell [7]; cats (2 heads), 100g/day, 3rd day): 1/2
- Efficiency 4th day (urogenous smell [7]; cats (2 heads), 100g/day, 4th day): 2/2
- Efficiency 5th day (urogenous smell [7]; cats (2 heads), 100g/day, 5th day): 2/2
- Efficiency 7th day (urogenous smell [7]; cats (2 heads), 100g/day, 7th day): 2/2
- deodorizing effect of the compound appears (urogenous smell [7]; cats, 100g/day): by third day
- urogenous smell disappeared (urogenous smell [7]; cats, 100g/day): on forth day
- Deodorizing Effects 2nd day (urogenous smell [7]; individual cat, 100g/day over 7 days, 2nd day): 2
- Deodorizing Effects 3rd day (urogenous smell [7]; individual cat, 100g/day, 3rd day): 3 and 2
- Deodorizing Effects 4th day (urogenous smell [7]; individual cat, 100g/day, 4th day): 3
- Deodorizing Effects 5th day (urogenous smell [7]; individual cat, 100g/day, 5th day): 3
- Deodorizing Effects 7th day (urogenous smell [7]; individual cat, 100g/day, 7th day): 3
- ozostomy on the test group, first inspection (ozostomy; aqueous solution 105mg/10ml drunk immediately after intake of smell generating material, 1 hour from the intake): not so strong
- ozostomy on the test group, second inspection (ozostomy; aqueous solution 105mg/10ml, 3 hours from the intake): apparently decreases
